inhibition, EC50 and inhibition in vivo data for 24 compounds are collected here from US12655090B2, “Cyclopropylamide compounds against parasites in fish” (Intervet Inc., priority 2021, dated 2026).

pEC50: −log10 of the molar value. Like-named read-outs stand apart in the source and are kept apart here.

Test [1] deals with Copepodids (juvenile sea lice stage of Lepeophtheirus salmonis). Put plainly: Juvenile sea lice contact assay. The note with it: approximately 24 hours continuous exposure in seawater, read-out: Sea lice inhibition (% of dead+damaged copepodids); for inhibition at 0.0001 µM: test concentration 0.1 nM; for inhibition at 0.1 µM: test concentration 100 nM; for inhibition at 10 pM: test concentration 0.01 nM; for inhibition at 0.001 µM: test concentration 1 nM; for inhibition at 0.01 µM: test concentration 10 nM. Here is the method:
Copepodids (juvenile sea lice stage of Lepeophtheirus salmonis) were exposed to seawater spiked with declining concentrations of a test compound (dissolved in a DMSO sea-water mixture). Sea lice inhibition (% of dead+damaged copepodids) was assessed after approximately 24 hours of continuous exposure. The vitality of used parasites was confirmed in a negative (solvent) control group.

Test [2] concerns Mobile stages of sea lice (pre-adults, adults of Lepeophtheirus salmonis). Put plainly: Adult sea lice contact assay. The note with it: assessed after approximately 1 and 24 hours of continuous exposure, read-out: EC50 (sea lice inhibition, dead+damaged sea lice). On the procedure: Mobile stages of sea lice (i.e., pre-adults, adults of Lepeophtheirus salmonis) were exposed to seawater spiked with declining concentrations of a test compound (dissolved in a PEG sea-water mixture). Sea lice inhibition (% of dead+damaged sea lice) was assessed after approximately 1 and 24 hours of continuous exposure in comparison to a negative (solvent) control group.

The subject of test [3] is Lepeophtheirus salmonis sea lice on salmon (Salmo salar). Put plainly: Salmon in vivo efficacy trial using gavage administration. The note with it: po. Here is the method:
Salmon (Salmo salar) were treated once orally by gavage at a dose of 5 mg/kg bodyweight per fish (Day 0). As formulation DMSO 5%/fish oil 95% was used. Salmon of the negative control group received only the excipients of the formulation. The fish were infested with Lepeophtheirus salmonis copepodids twice before treatment (i.e., around day −28 and day −3) and once after treatment (i.e., day 17). […] Around day 28 (end of animal phase), fish were euthanized, and lice on each fish were classified ((pre-)adult or juvenile stage) and counted. […] Efficacy is expressed as a % reduction of sea lice in treated groups versus a control group, using the Abbott's formula.

Setting [4] is: 168 h, read-out: therapeutic efficacy against (pre-)adult sea lice (% reduction vs control, Abbott's formula), once orally by gavage 5 mg/kg bodyweight, day -28 infestation, counted at day 7.
[5] abbreviates: 672 h, read-out: therapeutic efficacy against juvenile sea lice (% reduction vs control, Abbott's formula), once orally by gavage 5 mg/kg bodyweight, day -3 infestation, counted around day 28.
[6] abbreviates: 672 h, read-out: prophylactic efficacy at re-infestation on Day 17 (% reduction vs control, Abbott's formula), once orally by gavage 5 mg/kg bodyweight, re-infestation day 17, counted around day 28.

As usually defined, the inhibition is how much of the control response was suppressed. Usually pEC50 stands for −log10 of the EC50, conventionally taken in molar units. For `O=C(NCC(F)(F)F)c1cc(NC(=O)[C@H]2[C@H](c3ccc(F)c(F)c3)C2(Cl)Cl)ccc1Cl` [Compound 1584], the inhibition at 0.0001 µM in test [1] came to 100%. Besides, in test [2], the pEC50 is ≥ 9.00. In test [3] (setting [4]), the inhibition in vivo at 5 mg/kg was 100%.

In the case of `N#CC1(NC(=O)c2cc(NC(=O)[C@H]3[C@H](c4ccc(Br)c(Cl)c4)C3(Cl)Cl)ccc2Cl)CC1` [Compound 1585], in test [1], the inhibition at 0.1 µM was 100%. Also, the negative-log EC50 (pEC50) in test [2] is 8.00 to 9.00. Besides, the inhibition in vivo at 5 mg/kg in test [3] (setting [4]) and in test [3] (setting [5]) was 100% throughout.

As for `N#CC1(NC(=O)c2cc(NC(=O)[C@H]3[C@H](c4ccc(C(F)F)c(F)c4)C3(Cl)Cl)ccc2Cl)CC1` [Compound 1587], the inhibition at 0.1 µM in test [1] turned out to be 100%. The pEC50 in test [2] is ≥ 9.00. Moreover, the inhibition in vivo at 5 mg/kg in test [3] (setting [4]) stood at 80%.

With `O=C(NCC(F)(F)F)c1cc(NC(=O)[C@H]2[C@H](c3cc(Cl)cc(Cl)c3)C2(Cl)Cl)ccc1Cl` [Compound 1592], the inhibition at 0.0001 µM in test [1] was 80%. In addition, the negative logarithm of the EC50 (pEC50) in test [2] is ≥ 9.00. In addition, the inhibition in vivo at 5 mg/kg in test [3] (setting [4]) and in test [3] (setting [5]) was 100% in each case.

Consider `O=C(NCC(F)(F)F)c1cc(NC(=O)[C@H]2[C@H](c3cc(F)c(F)c(F)c3)C2(Cl)Cl)ccc1Cl` [Compound 1593], for which the inhibition at 10 pM in test [1] was 100%. Besides, in test [2], the pEC50 is ≥ 9.00. Also, the inhibition in vivo at 5 mg/kg in test [3] (setting [4]) was 100%; in test [3] (setting [5]), 80%.

Regarding `O=C(NC1CC(F)(F)C1)c1cc(NC(=O)[C@H]2[C@H](c3cccc(C(F)(F)F)c3)C2(Cl)Cl)ccc1Cl` [Compound 1601], the inhibition at 0.001 µM in test [1] was 100%. The pEC50 in test [2] is 8.00 to 9.00. Besides, the inhibition in vivo at 5 mg/kg in test [3] (setting [4]) and in test [3] (setting [5]) was 100% throughout.

Turning to `N#CC1(NC(=O)c2cc(NC(=O)C3C(c4cc(Cl)cc(Cl)c4)C3(Cl)Cl)ccc2F)CC1` (stereo not drawn) [Compound 1605], in test [1], the inhibition at 10 pM is 100%. For the same compound, the pEC50 in test [2] was ≥ 9.00. Besides, the inhibition in vivo at 5 mg/kg in test [3] (setting [4]) and in test [3] (setting [5]) was 100% throughout.

`N#CC1(NC(=O)c2cc(NC(=O)[C@H]3[C@H](c4ccc(Cl)c(F)c4)C3(Cl)Cl)ccc2Cl)CC1` [Compound 1606]: the inhibition at 0.1 µM in test [1] stood at 100%. Further, the pEC50 in test [2] is 7.60 to 8.00. Moreover, the inhibition in vivo at 5 mg/kg in test [3] (setting [4]) and in test [3] (setting [5]) was 100% throughout.

Take `N#CC1(NC(=O)c2cc(NC(=O)[C@H]3[C@H](c4ccc(F)c(Cl)c4)C3(Cl)Cl)ccc2Cl)CC1` [Compound 1608]: the inhibition at 10 pM in test [1] turned out to be 100%. The negative logarithm of the EC50 (pEC50) in test [2] was ≥ 9.00. In addition, the inhibition in vivo at 5 mg/kg in test [3] (setting [4]) and in test [3] (setting [5]) was 100% in each case.

Turning to `N#CC1(NC(=O)c2cc(NC(=O)[C@H]3[C@H](c4cc(Cl)c(F)c(Cl)c4)C3(Cl)Cl)ccc2Cl)CC1` [Compound 1609], the inhibition at 0.01 µM in test [1] is 100%. Further, the negative-log EC50 (pEC50) in test [2] is 8.00 to 9.00. Also, the inhibition in vivo at 5 mg/kg in test [3] (setting [4]), in test [3] (setting [6]) and in test [3] (setting [5]) was 100% in each case.

Consider `C#CCNC(=O)c1cc(NC(=O)C2C(c3cc(C(F)(F)F)cc(C(F)(F)F)c3)C2(Cl)Cl)ccc1Cl` (stereo not drawn) [Compound 1614], for which the inhibition at 0.001 µM in test [1] was 80%. Moreover, the pEC50 in test [2] is ≥ 9.00.

In the case of `N#CC1(NC(=O)c2cc(NC(=O)C3C(c4cc(C(F)(F)F)cc(C(F)(F)F)c4)C3(Cl)Cl)cc(F)c2F)CC1` (stereo not drawn) [Compound 1615], in test [1], the inhibition at 0.01 µM was 100%. In test [2], the pEC50 was 8.00 to 9.00.

For `C#CC1(NC(=O)c2cc(NC(=O)[C@H]3[C@H](c4cc(Cl)cc(Cl)c4)C3(Cl)Cl)cc(F)c2F)CC1` [Compound 1617, 5-((1R,3R)-2,2-dichloro-3-(3,5-dichlorophenyl)cyclopropane-1-carboxamido)-N-(1-ethynylcyclopropyl)-2,3-difluorobenzamide], the inhibition at 0.1 µM in test [1] came out at 100%. In test [2], the negative-log EC50 (pEC50) was ≥ 9.00. The inhibition in vivo at 5 mg/kg in test [3] (setting [4]), in test [3] (setting [6]) and in test [3] (setting [5]) was 100% throughout.

With `O=C(NC1CC1)c1cc(NC(=O)[C@H]2[C@H](c3cc(Cl)cc(Cl)c3)C2(Cl)Cl)cc(F)c1F` [Compound 1618], the inhibition at 0.01 µM in test [1] is 100%. The pEC50 in test [2] was ≥ 9.00. Further, the inhibition in vivo at 5 mg/kg in test [3] (setting [4]), in test [3] (setting [6]) and in test [3] (setting [5]) was 100% throughout.

As to `CC1(NC(=O)c2cc(NC(=O)[C@H]3[C@H](c4cc(Cl)cc(Cl)c4)C3(Cl)Cl)ccc2Cl)CC1` [Compound 1619], the inhibition at 0.01 µM in test [1] stood at 100%. Also, the pEC50 in test [2] is ≥ 9.00. The inhibition in vivo at 5 mg/kg in test [3] (setting [4]) turned out to be 100%; in test [3] (setting [5]), 80%.

In the case of `C#CC1(NC(=O)c2cc(NC(=O)[C@H]3[C@H](c4cc(Cl)cc(Cl)c4)C3(Cl)Cl)ccc2Cl)CC1` [Compound 1620, 2-chloro-5-((1R,3R)-2,2-dichloro-3-(3,5-dichlorophenyl)cyclopropane-1-carboxamido)-N-(1-ethynylcyclopropyl)benzamide], in test [1], the inhibition at 0.01 µM was 100%. Also, the negative logarithm of the EC50 (pEC50) in test [2] was ≥ 9.00. For the same compound, the inhibition in vivo at 5 mg/kg in test [3] (setting [4]) was determined as 100%; in test [3] (setting [5]) it was 80%.

As for `O=C(NC1CC1)c1cc(NC(=O)[C@H]2[C@H](c3cc(Cl)cc(Cl)c3)C2(Cl)Cl)ccc1Cl` [Compound 1621], the inhibition at 0.01 µM in test [1] was found to be 100%. Further, the negative-log EC50 (pEC50) in test [2] is ≥ 9.00. The inhibition in vivo at 5 mg/kg in test [3] (setting [4]) stood at 100%; in test [3] (setting [5]), 80%.

Regarding `C#CCNC(=O)c1cc(NC(=O)[C@H]2[C@H](c3cc(Cl)cc(Cl)c3)C2(Cl)Cl)ccc1Cl` [Compound 1622], in test [1], the inhibition at 0.01 µM was ≥ 80%. In addition, the pEC50 in test [2] is ≥ 9.00. In addition, the inhibition in vivo at 5 mg/kg in test [3] (setting [4]) worked out at 100%.

As to `N#CC1(NC(=O)c2cc(NC(=O)[C@H]3[C@H](c4cc(F)c(F)c(F)c4)C3(Cl)Cl)ccc2F)CC1` [Compound 1623], the inhibition at 0.0001 µM in test [1] was 100%. Further, the negative-log EC50 (pEC50) in test [2] is 8.00 to 9.00. For the same compound, the figures for the inhibition in vivo at 5 mg/kg in test [3] (setting [4]) and in test [3] (setting [5]) were 100% and 80%, respectively.

With `N#CC1(NC(=O)c2cc(NC(=O)[C@H]3[C@H](c4cc(F)c(F)c(F)c4)C3(Cl)Cl)ccc2Cl)CC1` [Compound 1624], the inhibition at 0.0001 µM in test [1] worked out at 100%. The negative logarithm of the EC50 (pEC50) in test [2] was 8.00 to 9.00. For the same compound, the values for the inhibition in vivo at 5 mg/kg in test [3] (setting [4]), in test [3] (setting [6]) and in test [3] (setting [5]) were 100%, 80% and 80%, respectively.

As for `O=C(NC1CC(F)(F)C1)c1cc(NC(=O)[C@H]2[C@H](c3cc(Cl)cc(Cl)c3)C2(Cl)Cl)ccc1Cl` [Compound 1625], the inhibition at 0.1 µM in test [1] came out at 100%. For the same compound, the negative logarithm of the EC50 (pEC50) in test [2] is ≥ 9.00. Moreover, the inhibition in vivo at 5 mg/kg in test [3] (setting [4]), in test [3] (setting [6]) and in test [3] (setting [5]) was 100% in each case.

Take `CC1(NC(=O)c2cc(NC(=O)[C@H]3[C@H](c4cc(Cl)cc(Cl)c4)C3(Cl)Cl)ccc2F)CC1` [Compound 1626]: the inhibition at 0.01 µM in test [1] was ≥ 80%. In addition, the negative logarithm of the EC50 (pEC50) in test [2] was 8.00 to 9.00. In addition, the inhibition in vivo at 5 mg/kg turned out to be 100% in test [3] (setting [4]) and 80% in test [3] (setting [5]).

On to `O=C(NC1CC(F)(F)C1)c1cc(NC(=O)[C@H]2[C@H](c3cc(Cl)cc(Cl)c3)C2(Cl)Cl)cc(F)c1F` [Compound 1628], for which, in test [1], the inhibition at 0.01 µM worked out at 100%. In addition, the negative-log EC50 (pEC50) in test [2] was 8.00 to 9.00. Further, the inhibition in vivo at 5 mg/kg in test [3] (setting [4]), in test [3] (setting [6]) and in test [3] (setting [5]) was 100% each time.

As for `O=C(NC1CC(F)(F)C1)c1cc(NC(=O)[C@H]2[C@H](c3cc(Cl)cc(Cl)c3)C2(Cl)Cl)ccc1F` [Compound 1630], the inhibition at 0.01 µM in test [1] came to 100%. Further, the pEC50 in test [2] is ≥ 9.00. The inhibition in vivo at 5 mg/kg in test [3] (setting [4]), in test [3] (setting [6]) and in test [3] (setting [5]) was 100% throughout.
